# Assay results reported in ChEMBL document CHEMBL5465560, “Selectivity Literature for EUbOPEN Chemogenomic Library” (2024).
# Columns and labels:
# [1] = molecular target: Serine/threonine-protein kinase 26 (Homo sapiens, UniProt Q9P289); experiment: Selectivity interaction (KinomeScan (DiscoverX)) EUB0000045b STK26
# [2] = molecular target: RAC-alpha serine/threonine-protein kinase (Homo sapiens, UniProt P31749); experiment: Selectivity interaction (KinomeScan (DiscoverX)) EUB0000045b AKT1
# [3] = molecular target: Leucine-rich repeat serine/threonine-protein kinase 2 (Homo sapiens, UniProt Q5S007); experiment: (§1) Selectivity interaction (KinomeScan (DiscoverX)) EUB0000045b LRRK2
# Chain of Leucine-rich repeat serine/threonine-protein kinase 2 (Q5S007 whole entry): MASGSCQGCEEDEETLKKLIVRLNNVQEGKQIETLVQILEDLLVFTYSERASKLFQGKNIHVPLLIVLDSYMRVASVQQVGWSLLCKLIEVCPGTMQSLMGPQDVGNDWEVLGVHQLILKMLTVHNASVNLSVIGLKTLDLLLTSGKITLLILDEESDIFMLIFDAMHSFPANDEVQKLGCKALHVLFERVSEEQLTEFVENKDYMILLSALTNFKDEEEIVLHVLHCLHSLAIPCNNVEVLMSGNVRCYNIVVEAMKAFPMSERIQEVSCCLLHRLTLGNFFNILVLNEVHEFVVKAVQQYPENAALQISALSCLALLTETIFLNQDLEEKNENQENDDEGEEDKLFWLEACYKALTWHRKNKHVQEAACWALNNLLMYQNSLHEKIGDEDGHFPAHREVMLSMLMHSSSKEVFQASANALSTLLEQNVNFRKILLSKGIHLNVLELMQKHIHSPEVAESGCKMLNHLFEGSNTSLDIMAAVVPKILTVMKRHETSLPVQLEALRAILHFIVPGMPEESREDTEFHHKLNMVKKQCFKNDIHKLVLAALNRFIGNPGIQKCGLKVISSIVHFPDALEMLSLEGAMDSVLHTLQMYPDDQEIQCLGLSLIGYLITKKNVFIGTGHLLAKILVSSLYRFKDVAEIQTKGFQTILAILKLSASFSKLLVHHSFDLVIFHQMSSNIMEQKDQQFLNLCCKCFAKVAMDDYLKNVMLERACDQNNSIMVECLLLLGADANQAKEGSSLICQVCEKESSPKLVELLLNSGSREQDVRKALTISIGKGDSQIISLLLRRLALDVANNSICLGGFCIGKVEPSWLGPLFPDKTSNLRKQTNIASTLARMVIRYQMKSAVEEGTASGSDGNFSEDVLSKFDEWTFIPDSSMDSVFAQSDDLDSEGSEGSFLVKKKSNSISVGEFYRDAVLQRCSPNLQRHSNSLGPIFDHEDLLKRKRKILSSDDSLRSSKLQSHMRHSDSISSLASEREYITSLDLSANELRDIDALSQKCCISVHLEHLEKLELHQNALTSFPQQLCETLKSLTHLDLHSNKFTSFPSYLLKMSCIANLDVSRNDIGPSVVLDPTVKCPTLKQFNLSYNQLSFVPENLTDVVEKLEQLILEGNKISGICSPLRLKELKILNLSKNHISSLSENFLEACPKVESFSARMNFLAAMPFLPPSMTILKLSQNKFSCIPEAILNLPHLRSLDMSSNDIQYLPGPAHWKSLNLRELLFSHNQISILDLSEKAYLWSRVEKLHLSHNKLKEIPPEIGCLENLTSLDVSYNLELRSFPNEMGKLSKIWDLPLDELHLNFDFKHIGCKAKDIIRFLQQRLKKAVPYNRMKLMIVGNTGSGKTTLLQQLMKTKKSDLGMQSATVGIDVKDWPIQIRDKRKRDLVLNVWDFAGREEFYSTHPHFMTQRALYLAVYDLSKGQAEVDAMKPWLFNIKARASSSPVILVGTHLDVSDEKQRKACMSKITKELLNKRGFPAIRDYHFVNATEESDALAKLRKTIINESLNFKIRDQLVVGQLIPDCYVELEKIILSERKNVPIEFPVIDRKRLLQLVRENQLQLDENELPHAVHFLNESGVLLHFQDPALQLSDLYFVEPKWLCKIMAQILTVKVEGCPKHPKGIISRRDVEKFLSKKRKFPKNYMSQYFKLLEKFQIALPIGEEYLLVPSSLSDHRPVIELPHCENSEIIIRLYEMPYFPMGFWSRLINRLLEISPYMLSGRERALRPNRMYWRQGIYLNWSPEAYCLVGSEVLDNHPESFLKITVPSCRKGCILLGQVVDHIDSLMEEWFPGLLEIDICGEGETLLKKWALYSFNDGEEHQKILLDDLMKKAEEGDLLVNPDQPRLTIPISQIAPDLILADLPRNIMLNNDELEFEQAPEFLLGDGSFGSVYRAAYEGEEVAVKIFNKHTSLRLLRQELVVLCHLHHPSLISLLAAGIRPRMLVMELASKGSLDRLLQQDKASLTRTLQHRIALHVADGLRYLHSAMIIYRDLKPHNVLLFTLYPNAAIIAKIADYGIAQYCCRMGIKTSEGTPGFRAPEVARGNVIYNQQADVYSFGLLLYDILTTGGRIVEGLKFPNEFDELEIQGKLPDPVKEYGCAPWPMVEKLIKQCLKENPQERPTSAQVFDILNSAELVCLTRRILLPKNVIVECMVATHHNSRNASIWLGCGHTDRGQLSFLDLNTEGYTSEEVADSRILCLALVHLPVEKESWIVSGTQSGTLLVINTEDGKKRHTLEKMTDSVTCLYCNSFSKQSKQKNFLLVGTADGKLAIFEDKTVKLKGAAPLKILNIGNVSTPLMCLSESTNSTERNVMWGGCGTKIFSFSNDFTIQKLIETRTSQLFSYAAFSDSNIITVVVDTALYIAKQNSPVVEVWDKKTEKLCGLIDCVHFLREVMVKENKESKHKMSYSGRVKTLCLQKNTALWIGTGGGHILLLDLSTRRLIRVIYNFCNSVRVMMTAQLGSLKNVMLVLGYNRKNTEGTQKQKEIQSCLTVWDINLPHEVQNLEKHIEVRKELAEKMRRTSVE
# [4] = system: Leucine-rich repeat serine/threonine-protein kinase 2 (Homo sapiens), Q5S007 [G2019S]; experiment: as §1
# Chain of Leucine-rich repeat serine/threonine-protein kinase 2 (Homo sapiens), Q5S007 [G2019S] (Q5S007 whole entry G2019S): as the sequence (Q5S007 whole entry) above, with G2019S counted along it
# [5] = molecular target: Ribosomal protein S6 kinase alpha-1 (Homo sapiens, UniProt Q15418); experiment: Selectivity interaction (KinomeScan (DiscoverX)) EUB0000695a RPS6KA1; settings: at 100 nM
# [6] = molecular target: Serine/threonine-protein kinase pim-2 (Homo sapiens, UniProt Q9P1W9); experiment: Selectivity interaction (KinomeScan (DiscoverX)) EUB0001079a PIM2; settings: at 1 µM
# [7] = molecular target: T1, Rhodopsin kinase GRK1 (Homo sapiens) (UniProt Q15835); settings: at 10 µM
# T1 sequence (whole entry): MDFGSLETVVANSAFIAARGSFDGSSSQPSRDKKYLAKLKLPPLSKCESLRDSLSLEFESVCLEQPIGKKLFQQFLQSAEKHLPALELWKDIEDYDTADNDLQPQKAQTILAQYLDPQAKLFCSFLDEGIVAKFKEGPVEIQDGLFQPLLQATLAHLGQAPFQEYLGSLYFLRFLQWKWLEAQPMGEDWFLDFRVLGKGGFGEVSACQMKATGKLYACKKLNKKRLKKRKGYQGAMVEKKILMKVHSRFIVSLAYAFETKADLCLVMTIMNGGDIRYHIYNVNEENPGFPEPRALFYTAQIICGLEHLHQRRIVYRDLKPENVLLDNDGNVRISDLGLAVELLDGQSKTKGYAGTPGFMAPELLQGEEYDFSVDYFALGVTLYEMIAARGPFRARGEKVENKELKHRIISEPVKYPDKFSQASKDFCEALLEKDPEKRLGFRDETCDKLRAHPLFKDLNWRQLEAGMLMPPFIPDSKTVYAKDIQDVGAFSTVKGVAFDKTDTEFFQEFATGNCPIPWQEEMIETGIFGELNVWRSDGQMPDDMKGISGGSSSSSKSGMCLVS
# [8] = molecular target: T2, Interleukin-1 receptor-associated kinase 4 (Homo sapiens) (UniProt Q9NWZ3); experiment: Selectivity interaction (KinomeScan (DiscoverX)) EUB0001049a IRAK4; settings: at 1 µM
# T2 sequence (whole entry): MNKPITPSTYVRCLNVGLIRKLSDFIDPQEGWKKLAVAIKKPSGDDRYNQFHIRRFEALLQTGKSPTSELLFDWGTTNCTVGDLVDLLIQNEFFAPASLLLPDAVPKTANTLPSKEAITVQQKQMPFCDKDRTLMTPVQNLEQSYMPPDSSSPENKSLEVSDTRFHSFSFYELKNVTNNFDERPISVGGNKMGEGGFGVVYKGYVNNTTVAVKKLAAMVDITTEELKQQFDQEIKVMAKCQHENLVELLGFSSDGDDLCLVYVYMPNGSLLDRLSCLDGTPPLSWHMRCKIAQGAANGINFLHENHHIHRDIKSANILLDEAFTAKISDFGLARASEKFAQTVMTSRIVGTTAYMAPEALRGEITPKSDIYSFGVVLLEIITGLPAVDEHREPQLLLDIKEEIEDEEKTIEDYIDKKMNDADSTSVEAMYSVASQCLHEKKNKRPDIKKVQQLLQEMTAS
# [9] = molecular target: Non-receptor tyrosine-protein kinase TYK2 (Homo sapiens, UniProt P29597); experiment: Selectivity interaction (KinomeScan (DiscoverX)) EUB0001868a TYK2; settings: at 1 µM
# [10] = molecular target: Mitogen-activated protein kinase 8 (Homo sapiens, UniProt P45983); experiment: Selectivity interaction (Millipore kinase profiler) EUB0000124b MAPK8; settings: at 10 µM
# Chain of Mitogen-activated protein kinase 8 (P45983 whole entry): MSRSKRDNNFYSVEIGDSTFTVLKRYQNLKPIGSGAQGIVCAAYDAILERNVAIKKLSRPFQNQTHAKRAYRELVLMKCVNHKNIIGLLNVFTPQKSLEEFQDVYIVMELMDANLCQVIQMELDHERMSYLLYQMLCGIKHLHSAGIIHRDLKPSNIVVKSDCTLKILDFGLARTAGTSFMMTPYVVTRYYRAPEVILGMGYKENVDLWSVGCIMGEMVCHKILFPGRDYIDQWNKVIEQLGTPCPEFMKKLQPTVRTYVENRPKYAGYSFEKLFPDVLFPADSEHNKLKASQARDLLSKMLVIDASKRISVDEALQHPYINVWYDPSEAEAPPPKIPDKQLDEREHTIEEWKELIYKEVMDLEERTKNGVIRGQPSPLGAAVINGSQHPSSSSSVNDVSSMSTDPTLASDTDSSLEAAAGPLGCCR
# [11] = molecular target: RAF proto-oncogene serine/threonine-protein kinase (Homo sapiens) (UniProt P04049); experiment: Selectivity interaction (KinomeScan (DiscoverX)) EUB0000607a RAF1; settings: at 10 µM
# Chain of RAF proto-oncogene serine/threonine-protein kinase (Homo sapiens) (P04049 whole entry): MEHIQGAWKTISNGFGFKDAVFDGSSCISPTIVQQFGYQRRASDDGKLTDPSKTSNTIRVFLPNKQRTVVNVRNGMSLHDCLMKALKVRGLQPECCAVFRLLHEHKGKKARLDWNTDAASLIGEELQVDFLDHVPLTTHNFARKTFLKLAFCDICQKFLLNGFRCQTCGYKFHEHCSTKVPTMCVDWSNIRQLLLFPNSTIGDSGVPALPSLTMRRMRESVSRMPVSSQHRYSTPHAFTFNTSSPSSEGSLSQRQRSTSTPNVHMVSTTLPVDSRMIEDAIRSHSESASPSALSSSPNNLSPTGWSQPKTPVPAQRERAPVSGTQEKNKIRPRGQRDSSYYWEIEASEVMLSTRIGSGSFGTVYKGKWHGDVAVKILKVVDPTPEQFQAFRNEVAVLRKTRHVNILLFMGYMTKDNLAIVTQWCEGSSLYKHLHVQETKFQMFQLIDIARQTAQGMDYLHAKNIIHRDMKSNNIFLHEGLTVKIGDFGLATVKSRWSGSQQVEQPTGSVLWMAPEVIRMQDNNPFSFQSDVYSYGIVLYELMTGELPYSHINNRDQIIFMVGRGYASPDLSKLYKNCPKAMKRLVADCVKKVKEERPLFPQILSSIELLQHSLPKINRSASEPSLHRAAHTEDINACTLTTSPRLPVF
# [12] = molecular target: Protein kinase C beta type (Homo sapiens, UniProt P05771); experiment: Selectivity interaction (SelectScreen profiling (Invitrogen)) EUB0000607a PRKCB; settings: at 2 µM
# [13] = molecular target: Cyclin-dependent kinase 8 (Homo sapiens, UniProt P49336); experiment: Selectivity interaction (Kinase panel (Invitrogen)) EUB0000639a CDK8; settings: at 200 nM
# Chain of Cyclin-dependent kinase 8 (P49336 whole entry): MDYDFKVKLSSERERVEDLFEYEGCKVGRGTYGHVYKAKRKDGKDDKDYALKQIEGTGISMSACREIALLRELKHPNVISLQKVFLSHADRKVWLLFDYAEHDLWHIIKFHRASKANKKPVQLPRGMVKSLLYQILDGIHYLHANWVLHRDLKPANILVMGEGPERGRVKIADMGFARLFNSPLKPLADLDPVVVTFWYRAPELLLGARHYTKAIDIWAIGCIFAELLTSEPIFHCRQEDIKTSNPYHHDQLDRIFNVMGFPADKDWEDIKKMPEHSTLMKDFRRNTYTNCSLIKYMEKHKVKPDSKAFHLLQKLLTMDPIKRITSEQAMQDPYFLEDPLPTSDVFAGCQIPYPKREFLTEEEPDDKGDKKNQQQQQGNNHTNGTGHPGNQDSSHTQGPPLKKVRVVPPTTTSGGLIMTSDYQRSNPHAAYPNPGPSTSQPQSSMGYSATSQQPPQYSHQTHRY
# [14] = molecular target: Platelet-derived growth factor receptor beta (Homo sapiens, UniProt P09619); experiment: Selectivity interaction (KinomeScan (DiscoverX)) EUB0000699a PDGFRB; settings: at 10 µM
# [15] = molecular target: Death-associated protein kinase 1 (Homo sapiens, UniProt P53355); experiment: Selectivity interaction (KinomeScan (DiscoverX)) EUB0000092b DAPK1; settings: at 10 µM
# Chain of Serine/threonine-protein kinase 26 (Q9P289 2-416 limits assumed): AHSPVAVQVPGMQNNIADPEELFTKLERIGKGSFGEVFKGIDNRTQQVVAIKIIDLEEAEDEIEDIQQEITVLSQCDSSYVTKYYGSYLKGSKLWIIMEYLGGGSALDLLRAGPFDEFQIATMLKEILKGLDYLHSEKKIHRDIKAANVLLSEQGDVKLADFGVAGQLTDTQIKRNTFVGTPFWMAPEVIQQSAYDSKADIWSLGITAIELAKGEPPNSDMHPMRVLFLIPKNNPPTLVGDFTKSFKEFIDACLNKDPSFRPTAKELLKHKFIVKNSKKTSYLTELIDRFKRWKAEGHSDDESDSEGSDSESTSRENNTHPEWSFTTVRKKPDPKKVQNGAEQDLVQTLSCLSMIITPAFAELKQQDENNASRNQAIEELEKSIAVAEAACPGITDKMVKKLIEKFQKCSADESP
# Chain of RAC-alpha serine/threonine-protein kinase (P31749 whole entry): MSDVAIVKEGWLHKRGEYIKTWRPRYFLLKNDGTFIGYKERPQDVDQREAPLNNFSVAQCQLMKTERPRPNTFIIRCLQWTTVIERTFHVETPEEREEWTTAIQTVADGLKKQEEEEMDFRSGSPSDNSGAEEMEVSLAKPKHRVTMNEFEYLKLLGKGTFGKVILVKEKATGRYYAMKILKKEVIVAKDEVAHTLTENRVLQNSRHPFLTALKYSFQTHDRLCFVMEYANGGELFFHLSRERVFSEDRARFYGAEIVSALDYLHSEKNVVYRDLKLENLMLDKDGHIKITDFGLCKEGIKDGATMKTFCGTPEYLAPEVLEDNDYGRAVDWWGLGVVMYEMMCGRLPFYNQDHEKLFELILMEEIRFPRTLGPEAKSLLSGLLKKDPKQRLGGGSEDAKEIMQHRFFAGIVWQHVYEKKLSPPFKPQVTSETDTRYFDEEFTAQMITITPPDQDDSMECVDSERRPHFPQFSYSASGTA
smiles,measurement,setting,value
C=CC(=O)Nc1cc(-n2c(=O)ccc3cnc4ccc(-c5ccc(NS(C)(=O)=O)cc5)cc4c32)ccc1C,% of control,[1]; at 1 µM,100%
same,% of control,[1]; at 10 µM,90%
same,% of control,[2]; at 1 µM,12%
same,% of control,[2]; at 10 µM,100%
same,% of control,[3]; at 1 µM,100%
same,% of control,[3]; at 10 µM,100%
same,% of control,[4]; at 1 µM,100%
same,% of control,[4]; at 10 µM,62%
Cc1cc(F)c(C(=O)Nc2cccc(-c3nncn3C(C)C)n2)cc1-n1cnc(C2CC2)c1,% of control,[5],88%
Nc1cnc(N2CCc3cc(S(=O)(=O)Nc4c(F)cc(Cl)cc4F)cc(N4CCCC4=O)c32)nc1 [TP-020n],% of control,[6],85%
Cc1cc([C@@H](C)Nc2ccccc2C(=O)O)c2nc(N3CCOCC3)cc(=O)n2c1 [AZD-6482],% of control,[7],100%
COc1cc(Nc2nc(C)cc(-c3cnn4nc(OC)ccc34)n2)cc(C(F)(F)F)c1,% of control,[8],87%
Cc1cc(-c2ccnc(Nc3cnn(C)c3)n2)ccc1CNC(=O)N1CC(OC(C)C)C1,% of control,[9],47%
CC(=O)Nc1cccc(-n2c(=O)n(C3CC3)c(=O)c3c(Nc4ccc(I)cc4F)n(C)c(=O)c(C)c32)c1,% of control,[10],104%
CNC(=O)Nc1ccc(-c2nc(N3CC4CCC(C3)O4)c3cnn(C4CCC5(CC4)OCCO5)c3n2)cc1,% of control,[11],100%
same,% of inhibition,[12],9%
CC[C@@H]1[C@H](F)C(=O)N[C@@H]1COc1nccc2cc(C(N)=O)c(OC)cc12 [ZIMLOVISERTIB],% of inhibition,[13],40.1%
CCN(CC)CCCCNc1ncc2cc(-c3cc(OC)cc(OC)c3)c(NC(=O)NC(C)(C)C)nc2n1,% of control,[14],38%
CCC(=O)N1CCN(c2ccc(-n3c(=O)ccc4cnc5ccc(-c6cnc7ccccc7c6)cc5c43)cc2C(F)(F)F)CC1,% of control,[15],96%
